# From patent US11111238B2, “Coumarin derivatives, processes for their preparation and uses thereof for the treatment of cancer” (Lead Discovery Center GmbH, priority 2017, dated 2021)
# pIC50: −log10 of the molar value.
# How the values were obtained:
# [1] = test system: mitochondrial transcription (7S RNA) in HeLa cells; experiment: Quantitative real time-PCR assay of inhibition of mitochondrial transcription (cellular qPCR assay IMT); assay type: cell-based; conditions: Homo sapiens, 4 h compound incubation, qRT-PCR according to Example 5, activity class
# Protocol: Quantitative real-time PCR (qRT-PCR), based on the TagMan™ (Thermo Fisher Scientific, Waltham Mass.) technology, was carried out essentially as described in (Heid et al., 1996). HeLa cells were plated one day before compound treatment in RPMI medium supplemented with 10% Fetal Calf Serum and 2 mM L-glutamine. Cells were incubated with dilution series of compounds or vehicle (DMSO) for 4 h, prior to harvest and extraction of the RNA using the RNeasy Mini Kit (Qiagen, Hilden D), according to the manufacturer's instructions. RNA concentrations were measured spectroscopically, using a NanoDrop-2000 (Thermo Fisher Scientific, Waltham Mass.) and normalized prior to cDNA synthesis, using a ‘High-Capacity cDNA Reverse Transcription Kit’ (Thermo Fisher Scientific, Waltham Mass.). qRT-PCR was carried out using the ‘TaqMan Fast Advance Master Mix’ (Thermo Fisher Scientific, Waltham Mass.) on a 7500 Fast Real-Time PCR machine (Applied Biosystems, Foster City Calif.)
# For these measurements, three genes were used to compare the effect of the scrutinized compounds in relation to their concentration. The POLRMT-gene was used to detect potential influences on nuclear transcription. Mitochondrial transcription in vivo was monitored by measurements 7S RNA. The TBP (TATA-box binding protein) gene was employed as the control (housekeeping gene) during qRT-PCR. The short-lived mitochondrial 7S RNA, which is not post-transcriptionally stabilized, allowed us to monitor rapid changes in mitochondrial transcription activity following compound addition. Biological triplicates were analyzed using the comparative CT Method (ΔΔCt) method (Bubner and Baldwin, 2004) and reported as Rq % values (Rq=Relative quantification=2-ΔΔCt).
# [2] = target: mitochondrial RNA-polymerase (POLRMT) (Mus musculus, UniProt Q8BKF1); experiment: Homogeneous TR-FRET assay for mitochondrial transcription activity; assay type: biochemical; conditions: homogeneous TR-FRET assay according to Example 4; activity class
# Sequence of mitochondrial RNA-polymerase (POLRMT) (Q8BKF1 42-1207): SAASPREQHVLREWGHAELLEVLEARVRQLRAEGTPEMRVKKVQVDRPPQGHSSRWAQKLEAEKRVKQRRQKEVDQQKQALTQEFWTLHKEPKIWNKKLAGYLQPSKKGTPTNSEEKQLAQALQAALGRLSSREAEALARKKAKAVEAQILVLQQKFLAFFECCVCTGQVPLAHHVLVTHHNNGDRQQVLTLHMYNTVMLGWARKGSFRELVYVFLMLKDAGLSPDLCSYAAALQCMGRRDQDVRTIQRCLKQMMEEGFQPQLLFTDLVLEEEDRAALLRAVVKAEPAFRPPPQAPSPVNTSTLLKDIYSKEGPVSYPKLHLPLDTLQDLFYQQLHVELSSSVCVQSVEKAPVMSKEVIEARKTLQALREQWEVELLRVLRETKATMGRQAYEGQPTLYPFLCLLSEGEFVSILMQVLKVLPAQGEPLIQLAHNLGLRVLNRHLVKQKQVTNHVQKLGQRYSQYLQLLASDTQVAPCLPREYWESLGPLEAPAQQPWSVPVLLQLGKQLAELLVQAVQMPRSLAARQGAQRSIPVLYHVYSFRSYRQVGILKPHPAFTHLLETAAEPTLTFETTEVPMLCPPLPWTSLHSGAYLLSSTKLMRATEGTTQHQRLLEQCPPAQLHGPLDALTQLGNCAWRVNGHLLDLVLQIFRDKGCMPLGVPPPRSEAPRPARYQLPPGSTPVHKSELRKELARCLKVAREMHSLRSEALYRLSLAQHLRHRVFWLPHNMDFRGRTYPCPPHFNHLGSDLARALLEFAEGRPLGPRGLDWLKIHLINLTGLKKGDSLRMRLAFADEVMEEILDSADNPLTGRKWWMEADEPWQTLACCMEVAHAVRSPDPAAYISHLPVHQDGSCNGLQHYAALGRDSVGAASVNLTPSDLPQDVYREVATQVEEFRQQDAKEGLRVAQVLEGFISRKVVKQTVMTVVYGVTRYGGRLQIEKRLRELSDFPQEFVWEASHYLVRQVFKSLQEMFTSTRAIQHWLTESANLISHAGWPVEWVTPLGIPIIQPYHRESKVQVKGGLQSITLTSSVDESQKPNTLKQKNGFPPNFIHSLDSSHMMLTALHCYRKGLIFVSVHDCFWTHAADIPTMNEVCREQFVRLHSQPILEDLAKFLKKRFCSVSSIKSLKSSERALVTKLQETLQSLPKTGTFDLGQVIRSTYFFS
# Summary of the method: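 TR-FRET read-out (340 nm excitation, 665 nm emission) of a 407 bp transcript captured by Eu-streptavidin/biotin donor and ATTO647N acceptor DNA probes after EDTA stop. Transcription ran 2 h at RT with 500 μM […], mouse POLRMT/TFAM/TFB2M and LSP-plasmid template, after 10 min compound preincubation (10 μM or dilution series).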
pIC50 [1],pIC50 [2],Compound
> 8.00,> 7.70,"CC(Oc1ccc2c(-c3ccc(F)cc3Cl)cc(=O)oc2c1)C(=O)N1CCCC(C)(C(=O)O)C1 (stereo not drawn) [Compound 37, 1-[2-[4-(2-chloro-4-fluoro-phenyl)-2-oxo-chromen-7-yl]oxypropanoyl]-3-methyl-piperidine-3-carboxylic acid]"
7.30 to 8.00,> 7.70,"Cc1ccccc1-c1cc(=O)oc2cc(OC(C)C(=O)N3CCCC(c4nn[nH]n4)C3)ccc12 (stereo not drawn) [Compound 42, 7-((1-(3-(2H-tetrazol-5-yl)piperidin-1-yl)-1-oxopropan-2-yl)oxy)-4-(o-tolyl)-2H-chromen-2-one]"
> 8.00,> 7.70,"CC(Oc1ccc2c(-c3ccccc3Cl)cc(=O)oc2c1)C(=O)N1CCCC(C)(C(=O)O)C1 (stereo not drawn) [Compound 54, 1-[2-[4-(2-chlorophenyl)-2-oxo-chromen-7-yl]oxypropanoyl]-3-methyl-piperidine-3-carboxylic acid]"
> 8.00,7.00 to 7.70,"CC(C)NC(=O)[C@@H](C)Oc1ccc2c(-c3ccccc3Cl)cc(=O)oc2c1 [Compound 56, (2R)-2-[4-(2-chlorophenyl)-2-oxo-chromen-7-yl]oxy-N-isopropyl-propanamide]"
7.30 to 8.00,7.00 to 7.70,"CC(Oc1ccc2c(-c3ccccc3Cl)cc(=O)oc2c1)C(=O)N1CCC(CC(=O)O)CC1 (stereo not drawn) [Compound 59, 2-[1-[2-[4-(2-chlorophenyl)-2-oxo-chromen-7-yl]oxypropanoyl]-4-piperidyl]acetic acid]"
> 8.00,7.00 to 7.70,"Cc1ccccc1-c1cc(=O)oc2cc(OC(C)C(=O)NC(C)C)ccc12 (stereo not drawn) [Compound 62, N-isopropyl-2-[4-(o-tolyl)-2-oxo-chromen-7-yl]oxy-propanamide]"
> 8.00,7.00 to 7.70,"CC(Oc1ccc2c(-c3ccccc3Cl)cc(=O)oc2c1)C(=O)N1CCCC(CC(=O)O)C1 (stereo not drawn) [Compound 66, 2-[1-[2-[4-(2-chlorophenyl)-2-oxo-chromen-7-yl]oxypropanoyl]-3-piperidyl]acetic acid]"
> 8.00,7.00 to 7.70,"CC(Oc1ccc2c(-c3ccc(F)cc3Cl)cc(=O)oc2c1)C(=O)N1CCCC(S(N)(=O)=O)C1 (stereo not drawn) [Compound 69, 1-[2-[4-(2-chloro-4-fluoro-phenyl)-2-oxo-chromen-7-yl]oxypropanoyl]piperidine-3-sulfonamide]"
> 8.00,7.00 to 7.70,"CC(C)NC(=O)C(C)Oc1ccc2c(-c3ccccc3Cl)cc(=O)oc2c1 (stereo not drawn) [Compound 70, 2-[4-(2-chlorophenyl)-2-oxo-chromen-7-yl]oxy-N-isopropyl-propanamide]"
> 8.00,7.00 to 7.70,"Cc1ccccc1-c1cc(=O)oc2cc(OC(C)C(=O)N3CCC[C@@H](C(=O)N(C)C)C3)ccc12 (stereo partly drawn) [Compound 78, (3R)-N,N-dimethyl-1-[2-[4-(o-tolyl)-2-oxo-chromen-7-yl]oxypropanoyl]piperidine-3-carboxamide]"
> 8.00,7.00 to 7.70,"CC(Oc1ccc2c(-c3ccccc3Cl)cc(=O)oc2c1)C(=O)N1CCCC(S(C)(=N)=O)C1 (stereo not drawn) [Compound 79, 4-(2-chlorophenyl)-7-[1-methyl-2-[3-(methylsulfonimidoyl)-1-piperidyl]-2-oxo-ethoxy]chromen-2-one]"
6.30 to 7.30,7.00 to 7.70,"COC(=O)CC1CCN(C(=O)C(C)Oc2ccc3c(-c4ccccc4Cl)cc(=O)oc3c2)CC1 (stereo not drawn) [Compound 80, methyl 2-[1-[2-[4-(2-chlorophenyl)-2-oxo-chromen-7-yl]oxypropanoyl]-4-piperidyl]acetate]"
7.30 to 8.00,7.00 to 7.70,"CCOC(=O)C(C)Oc1ccc2c(-c3ccccc3Br)cc(=O)oc2c1 (stereo not drawn) [Compound 81, ethyl 2-[4-(2-bromophenyl)-2-oxo-chromen-7-yl]oxypropanoate]"
7.30 to 8.00,7.00 to 7.70,"Cc1ccccc1-c1cc(=O)oc2cc(OC(C)C(=O)N3CCC[C@H](C(=O)N(C)C)C3)ccc12 (stereo partly drawn) [Compound 84, (3S)-N,N-dimethyl-1-[2-[4-(o-tolyl)-2-oxo-chromen-7-yl]oxypropanoyl]piperidine-3-carboxamide]"
7.30 to 8.00,7.00 to 7.70,"CCNC(=O)C(C)Oc1ccc2c(-c3ccccc3C)cc(=O)oc2c1 (stereo not drawn) [Compound 85, N-ethyl-2-[4-(o-tolyl)-2-oxo-chromen-7-yl]oxy-propanamide]"
7.30 to 8.00,7.00 to 7.70,"CCOC(=O)CC1CCCN(C(=O)C(C)Oc2ccc3c(-c4ccccc4Cl)cc(=O)oc3c2)C1 (stereo not drawn) [Compound 86, ethyl 2-[1-[2-[4-(2-chlorophenyl)-2-oxo-chromen-7-yl]oxypropanoyl]-3-piperidyl]acetate]"
> 8.00,7.00 to 7.70,"CC(Oc1ccc2c(-c3ccccc3Br)cc(=O)oc2c1)C(=O)N(C)C (stereo not drawn) [Compound 89, 2-[4-(2-bromophenyl)-2-oxo-chromen-7-yl]oxy-N,N-dimethyl-propanamide]"
> 8.00,7.00 to 7.70,"CCNC(=O)C(C)Oc1ccc2c(-c3ccc(F)cc3Cl)cc(=O)oc2c1 (stereo not drawn) [Compound 91, 2-[4-(2-chloro-4-fluoro-phenyl)-2-oxo-chromen-7-yl]oxy-N-ethyl-propanamide]"
> 8.00,7.00 to 7.70,"CC(C)OC(=O)C(C)Oc1ccc2c(-c3ccccc3Br)cc(=O)oc2c1 (stereo not drawn) [Compound 92, isopropyl 2-[4-(2-bromophenyl)-2-oxo-chromen-7-yl]oxypropanoate]"
> 8.00,7.00 to 7.70,"CC(Oc1ccc2c(-c3ccccc3Cl)cc(=O)oc2c1)C(=O)N(C)C (stereo not drawn) [Compound 93, 2-[4-(2-chlorophenyl)-2-oxo-chromen-7-yl]oxy-N,N-dimethyl-propanamide]"
> 8.00,6.00 to 7.00,"CCNC(=O)C(C)Oc1ccc2c(-c3ccccc3Cl)cc(=O)oc2c1 (stereo not drawn) [Compound 98, 2-[4-(2-chlorophenyl)-2-oxo-chromen-7-yl]oxy-N-ethyl-propanamide]"
7.30 to 8.00,> 7.70,"COC(=O)C[C@H]1CCCN(C(=O)[C@@H](C)Oc2ccc3c(-c4ccc(F)cc4Cl)cc(=O)oc3c2)C1 [Compound 104, methyl 2-[(3R)-1-[(2R)-2-[4-(2-chloro-4-fluoro-phenyl)-2-oxo-chromen-7-yl]oxypropanoyl]-3-piperidyl]acetate]"
7.30 to 8.00,7.00 to 7.70,"COC(=O)C[C@@H]1CCCN(C(=O)[C@@H](C)Oc2ccc3c(-c4ccc(F)cc4Cl)cc(=O)oc3c2)C1 [Compound 105, methyl 2-[(3S)-1-[(2R)-2-[4-(2-chloro-4-fluoro-phenyl)-2-oxo-chromen-7-yl]oxypropanoyl]-3-piperidyl]acetate]"
> 8.00,> 7.70,"C[C@@H](Oc1ccc2c(-c3ccc(F)cc3Cl)cc(=O)oc2c1)C(=O)N1CCC[C@H](CC(=O)O)C1 [Compound 106, 2-[(3R)-1-[(2R)-2-[4-(2-chloro-4-fluoro-phenyl)-2-oxo-chromen-7-yl]oxypropanoyl]-3-piperidyl]acetic acid]"
> 8.00,> 7.70,"C[C@@H](Oc1ccc2c(-c3ccc(F)cc3Cl)cc(=O)oc2c1)C(=O)N1CCC[C@@H](CC(=O)O)C1 [Compound 107, 2-[(3S)-1-[(2R)-2-[4-(2-chloro-4-fluoro-phenyl)-2-oxo-chromen-7-yl]oxypropanoyl]-3-piperidyl]acetic acid]"
> 8.00,> 7.70,"CCC(Oc1ccc2c(-c3ccccc3Cl)cc(=O)oc2c1)C(=O)N1CCC[C@H](C(=O)O)C1 (stereo partly drawn) [Compound 110, (3S)-1-[2-[4-(2-chlorophenyl)-2-oxo-chromen-7-yl]oxybutanoyl]piperidine-3-carboxylic acid]"
6.30 to 7.30,7.00 to 7.70,"CCOC(=O)[C@H]1CCCN(C(=O)[C@@H](C)Oc2ccc3c(-c4ccc(F)cc4Cl)cc(=O)oc3c2)C1 [Compound 111, ethyl (3S)-1-[(2R)-2-[4-(2-chloro-4-fluoro-phenyl)-2-oxo-chromen-7-yl]oxypropanoyl] piperidine-3-carboxylate]"
7.30 to 8.00,6.00 to 7.00,"CC(C)NC(=O)C(C)(C)Oc1ccc2c(-c3ccccc3Cl)cc(=O)oc2c1 [Compound 114, 2-[4-(2-chlorophenyl)-2-oxo-chromen-7-yl]oxy-N-isopropyl-2-methyl-propanamide]"
7.30 to 8.00,6.00 to 7.00,"Cc1ccccc1-c1cc(=O)oc2cc(OC(C)(C)C(=O)NC(C)C)ccc12 [Compound 115, N-isopropyl-2-methyl-2-[4-(o-tolyl)-2-oxo-chromen-7-yl]oxy-propanamide]"
5.30 to 6.30,6.00 to 7.00,"CC(C)(Oc1ccc2c(-c3ccccc3Cl)cc(=O)oc2c1)C(=O)N1CCC[C@H](C(=O)O)C1 [Compound 116, (3S)-1-[2-[4-(2-chlorophenyl)-2-oxo-chromen-7-yl]oxy-2-methyl-propanoyl]piperidine-3-carboxylic acid]"
